Test systems include HOP-18; M19-MEL; SNB-78; DMS-114; XF498; KM-20L2; DLD-1; LXFL 529; RXF 631.
What all share (test): NCI tumour cell line growth inhibition, 48 h

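Interpolation was linear, between the two tested concentrations surrounding the appropriate level; five concentrations were tested over 48 hours in 96-well plates. GI50: concentration for 50% inhibition of growth.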 Calls of active or inactive are those of the source. No stated cut-off is given here; in the data, active = GI50 up to about 1.1 µM and inactive = higher.

`Cc1cc(C)n(-c2ccnc3cc(Cl)ccc23)n1`: the GI50 in the assay with HOP-18, in the assay on M19-MEL, in the assay on SNB-78, in the assay with DMS-114, in the assay on XF498 and with KM-20L2 was > 100 µM (inactive) each time. The GI50 in the assay on DLD-1 and with LXFL 529 was > 100 µM (inactive) throughout.

`Cc1csc(=S)n1OC(=O)NC1CCCCC1`: the GI50 in the assay on M19-MEL was 16.5 µM (inactive); in the assay on SNB-78, 97.7 µM (inactive); in the assay with DMS-114 it was 12.3 µM (inactive); with XF498 it was > 100 µM (inactive); in the assay with DLD-1, 55.5 µM (inactive); in the assay on LXFL 529, 13.8 µM (inactive).

On to `COC1(OC)CC2C(=O)N(Cc3ccccc3)C1CC2S(=O)(=O)c1ccccc1` (stereo unspecified), for which the GI50 was > 100 µM (inactive) in the assay on HOP-18; > 100 µM (inactive) with M19-MEL; > 100 µM (inactive) in the assay on DMS-114; 33.4 µM (inactive) in the assay on XF498; > 100 µM (inactive) in the assay with DLD-1.

`O=[As](O)(O)c1cc(/N=N/c2ccc(-c3ccc(/N=N/c4cc([As](=O)(O)O)c(O)cc4O)cc3)cc2)c(O)cc1O`: the GI50 with HOP-18 was > 100 µM (inactive); in the assay with M19-MEL, > 100 µM (inactive); in the assay with SNB-78, > 100 µM (inactive); in the assay with DMS-114, > 80.4 µM (inactive); with KM-20L2, > 100 µM (inactive); in the assay with DLD-1, > 43 µM (inactive). Moreover, the GI50 in the assay with LXFL 529 and in the assay on RXF 631 was > 100 µM (inactive) each time.

With `CCOc1ccc(NC2=NC(=O)C(CC(=O)Nc3ccccc3[N+](=O)[O-])S2)cc1` (stereo unspecified), the GI50 with M19-MEL, with SNB-78, with DMS-114, with XF498, in the assay with KM-20L2 and with DLD-1 was > 100 µM (inactive) throughout. In addition, in the assay on LXFL 529, the GI50 was > 100 µM (inactive).

For `CCNC1C2(CCCCC2)NC(=O)C12CCCCC2` (stereo unspecified), the GI50 with M19-MEL, in the assay with SNB-78, in the assay on DMS-114, in the assay on XF498, with KM-20L2 and with DLD-1 was > 100 µM (inactive) each time. In addition, the GI50 with LXFL 529 is > 100 µM (inactive).

Take `O=C(NCCNCCO)N/N=C/c1ccccc1`: the GI50 in the assay on HOP-18, in the assay on SNB-78, with DMS-114, in the assay on XF498, in the assay with DLD-1 and with LXFL 529 was > 100 µM (inactive) each time.

`CCOC(=O)C(Cc1c[nH]c2cc([N+](=O)[O-])ccc12)NS(=O)(=O)c1ccc2ccccc2c1` (stereo unspecified): the GI50 with HOP-18 was 29.5 µM (inactive); in the assay with M19-MEL, 17.2 µM (inactive); with SNB-78, 20.7 µM (inactive); in the assay on DMS-114 it was 19.7 µM (inactive); with XF498 it was 17.3 µM (inactive); with KM-20L2, 19 µM (inactive). Moreover, the GI50 in the assay on DLD-1 was 23.7 µM (inactive); with LXFL 529 it was 17.5 µM (inactive).

With `Nc1nc(N)c(-c2ccccc2)c(CCC(=O)Nc2ccc(Cl)cc2)n1`, the GI50 with HOP-18, in the assay with M19-MEL, in the assay with SNB-78, in the assay on KM-20L2, in the assay with DLD-1 and with LXFL 529 was > 100 µM (inactive) in each case.

On to `COC1=CCC=C(C[C@@H]2NCCc3cc(OC)c(OC)cc32)C1`, for which the GI50 with M19-MEL, with SNB-78, with XF498, in the assay on KM-20L2, in the assay with DLD-1 and in the assay on LXFL 529 was > 100 µM (inactive) throughout.

Consider `COc1cccc2c1C(=O)c1c(O)c3c(c(O)c1C2=O)C[C@@](O)(C(C)=O)C[C@@H]3OC1CC(N(Cc2ccccc2)Cc2ccccc2)C(O)C(C)O1` (stereo partly specified), for which the GI50 in the assay with HOP-18 is > 45.5 µM (inactive); in the assay on M19-MEL it was 23.2 µM (inactive); in the assay on SNB-78, 2.56 µM (inactive); with DMS-114, 39.8 µM (inactive); in the assay on KM-20L2, 24.9 µM (inactive); in the assay on DLD-1, 10.1 µM (inactive). Moreover, the GI50 with LXFL 529 is 0.69 µM (active).

For the compound `Cn1cc(NC(=O)c2cc(NC(=O)CCCCCCCCC(=O)Nc3cc(C(=O)Nc4cc(C(=O)NCCC(N)N)n(C)c4)n(C)c3)cn2C)cc1C(=O)NCCC(=N)N`, the GI50 in the assay with HOP-18 is 25.9 µM (inactive); in the assay on M19-MEL, 16.6 µM (inactive); with SNB-78, 34.6 µM (inactive); with XF498, 28.6 µM (inactive); in the assay with KM-20L2, 19.7 µM (inactive); with DLD-1, 25.5 µM (inactive). Further, the GI50 in the assay with LXFL 529 was 27.2 µM (inactive); with RXF 631, 26.9 µM (inactive).

For the compound `Cc1cccc(NC(=O)C(=O)C(C(=O)c2ccc3ccccc3c2)C2OC(=O)c3ccccc32)c1C` (stereo unspecified), the GI50 is 9.91 µM (inactive) with M19-MEL; 16.1 µM (inactive) in the assay with SNB-78; 7.67 µM (inactive) with DMS-114; 1.56 µM (inactive) in the assay with XF498; 33 µM (inactive) in the assay on KM-20L2; 14.8 µM (inactive) with DLD-1. For the same compound, the GI50 in the assay on LXFL 529 was 9.55 µM (inactive); in the assay on RXF 631 it was 7.19 µM (inactive).

For `O=c1cccccc1NCCNc1cccccc1=O`, the GI50 with M19-MEL was > 100 µM (inactive); with SNB-78, > 100 µM (inactive); in the assay with DMS-114 it was > 100 µM (inactive); with XF498, > 100 µM (inactive); in the assay with KM-20L2 it was > 100 µM (inactive); in the assay with DLD-1, > 10 µM (inactive). Further, the GI50 in the assay on LXFL 529 and in the assay on RXF 631 was > 100 µM (inactive) throughout.

Regarding `O=C(O)C1C2CCC(O2)C1C(=O)N1CCCCC1` (stereo unspecified), the GI50 in the assay with HOP-18 was 12.9 µM (inactive); with M19-MEL, 9.1 µM (inactive); with SNB-78, 16.7 µM (inactive); with DMS-114, 2 µM (inactive); in the assay with KM-20L2, 2.65 µM (inactive); in the assay with DLD-1, 15.6 µM (inactive). The GI50 in the assay with LXFL 529 is 5.02 µM (inactive); in the assay with RXF 631, 17.4 µM (inactive).

As to `OCc1ccc(C2CC(c3ccco3)=NN2c2ccccc2)o1` (stereo unspecified), the GI50 with M19-MEL, in the assay on SNB-78, in the assay with DMS-114, with XF498, in the assay on KM-20L2 and in the assay with LXFL 529 was > 100 µM (inactive) each time.

For the compound `COc1cc2ccc3c4cc(OC)c(OC(C)C)cc4cnc3c2cc1OC`, the GI50 with HOP-18, with M19-MEL, in the assay with SNB-78, in the assay with DMS-114, with KM-20L2 and with DLD-1 was > 100 µM (inactive) throughout. Moreover, the GI50 in the assay with LXFL 529 and in the assay on RXF 631 was > 100 µM (inactive) in each case.

As for `COC(=O)C1=C(C)N(NC(=O)c2cccc(Cl)c2)C(C)(O)C12CCOC2=O` (stereo unspecified), the GI50 in the assay with M19-MEL is > 100 µM (inactive); in the assay on SNB-78 it was 42.1 µM (inactive); with DMS-114, > 100 µM (inactive); in the assay with XF498, > 100 µM (inactive); in the assay with KM-20L2, > 100 µM (inactive); in the assay with LXFL 529 it was > 100 µM (inactive). Further, the GI50 with RXF 631 was > 100 µM (inactive).

For the compound `COc1cc(C(C#N)NNC(=O)c2ccccc2O)ccc1O` (stereo unspecified), the GI50 with HOP-18 was 4.91 µM (inactive); in the assay with M19-MEL, 3.58 µM (inactive); in the assay with SNB-78, 3.2 µM (inactive); in the assay on KM-20L2, 29.4 µM (inactive); with DLD-1, 4.22 µM (inactive); in the assay on LXFL 529, 1.6 µM (inactive).

As for `Cc1cccc(Cl)c1NC(=O)c1cccc([N+](=O)[O-])c1O`, the GI50 is 28.5 µM (inactive) in the assay on HOP-18; 71 µM (inactive) with SNB-78; 25.8 µM (inactive) with DMS-114; 32.2 µM (inactive) in the assay on XF498; 41.4 µM (inactive) in the assay with KM-20L2; 31.7 µM (inactive) in the assay with DLD-1. Besides, the GI50 was 50.6 µM (inactive) in the assay with LXFL 529 and 36.7 µM (inactive) in the assay with RXF 631.

On to `N#CC(C#N)=C(N)/C(C#N)=C/c1ccc2[nH]ccc2c1`, for which the GI50 was 71.4 µM (inactive) in the assay on HOP-18; > 100 µM (inactive) in the assay with M19-MEL; > 100 µM (inactive) in the assay on SNB-78; > 100 µM (inactive) in the assay with DMS-114; > 100 µM (inactive) with KM-20L2.

(Values after ChEMBL document CHEMBL1201862, “PubChem BioAssay data set” (2004).)
